Laboratory results from US10800792B2, “Inhibitors of Bruton's tyrosine kinase and method of their use” (JANSSEN PHARMACEUTICA NV, priority 2015, dated 2020).

Target: unphosphorylated-BTK kinase domain (UP-BTK), GST-tagged human BTK (389-659aa) (Homo sapiens (Human), UniProt Q06187)
Experiment: BTK kinase Lanthascreen binding assay
Details: Lanthascreen tracer competition, 60 minutes incubation, pIC50 = negative log of the IC50 in molar; for IC50: read-out: BTK_I_binding pIC50 (converted)
Outline: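 Values are pIC50, i.e. negative log of IC50 in molar, derived from concentration–response fitting. Each compound competes with a fluorescently labelled tracer for the unphosphorylated kinase domain.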

unphosphorylated-BTK kinase domain (UP-BTK), GST-tagged human BTK (389-659aa), sequence (Q06187 389-659): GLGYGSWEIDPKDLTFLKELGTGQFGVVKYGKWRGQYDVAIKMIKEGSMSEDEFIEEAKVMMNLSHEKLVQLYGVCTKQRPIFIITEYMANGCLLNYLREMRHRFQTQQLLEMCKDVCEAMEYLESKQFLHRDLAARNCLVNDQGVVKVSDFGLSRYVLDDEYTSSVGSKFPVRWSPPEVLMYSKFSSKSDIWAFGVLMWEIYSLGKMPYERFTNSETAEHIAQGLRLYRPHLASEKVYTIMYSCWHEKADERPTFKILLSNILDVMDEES

| BTK_I_binding pIC50 | IC50 | SMILES |
| --- | --- | --- |
| 7.4 | – | CN1CCC[C@@H](NC(=O)c2sc3nccc4c3c2NC(=O)N4c2cccc(-c3cccc(F)c3F)c2)C1 [Example 710, (R)-5-(2′,3′-Difluoro-[1,1′-biphenyl]-3-yl)-N-(1-methylpiperidin-3-yl)-4-oxo-4,5-dihydro-3H-1-thia-3,5,8-triazaacenaphthylene-2-carboxamide] |
| 6.6 | – | Cc1nc(Oc2ccccc2)ccc1N1C(=O)Nc2c(C(=O)N[C@@H]3CCCNC3)sc3nccc1c23 [Example 711, (R)-5-(2-methyl-6-phenoxypyridin-3-yl)-4-oxo-N-(piperidin-3-yl)-4,5-dihydro-3H-1-thia-3,5,8-triazaacenaphthylene-2-carboxamide] |
| 6.5 | – | CNCC(=O)N1CCC[C@@H](NC(=O)c2sc3nccc4c3c2NC(=O)N4c2ccnc(-c3ccccc3)c2)C1 [Example 714, (R)—N-(1-(Methylglycyl)piperidin-3-yl)-4-oxo-5-(2-phenylpyridin-4-yl)-4,5-dihydro-3H-1-thia-3,5,8-triazaacenaphthylene-2-carboxamide] |
| 6.3 | – | C=CC(=O)N1C[C@@H](O)[C@@H](NC(=O)c2sc3nccc4c3c2NC(=O)N4c2ccnc(-c3ccccc3)c2)C1 [Example 718, N-((3S,4R)-1-Acryloyl-4-hydroxypyrrolidin-3-yl)-4-oxo-5-(2-phenylpyridin-4-yl)-4,5-dihydro-3H-1-thia-3,5,8-triazaacenaphthylene-2-carboxamide] |
| – | 501 nM | O=C(N[C@@H]1CCCNC1)c1sc2nccc3c2c1NC(=O)N3c1ncc(Oc2ccccc2)cn1 [Example 719, (R)-4-Oxo-5-(5-phenoxypyrimidin-2-yl)-N-(piperidin-3-yl)-4,5-dihydro-3H-1-thia-3,5,8-triazaacenaphthylene-2-carboxamide] |
| 6.2 | – | O=C(N[C@@H]1CCCNC1)c1sc2nccc3c2c1NC(=O)N3c1ccnc(C2CCCC2)c1 [Example 720, (R)-5-(2-Cyclopentylpyridin-4-yl)-4-oxo-N-(piperidin-3-yl)-4,5-dihydro-3H-1-thia-3,5,8-triazaacenaphthylene-2-carboxamide] |
| 6.2 | – | CC(C)Cc1cccc(N2C(=O)Nc3c(C(=O)N[C@@H]4CCCNC4)sc4nccc2c34)c1 [Example 721, (R)-5-(3-Isobutylphenyl)-4-oxo-N-(piperidin-3-yl)-4,5-dihydro-3H-1-thia-3,5,8-triazaacenaphthylene-2-carboxamide] |
| – | 794 nM | O=C(N[C@@H]1CCCNC1)c1sc2nccc3c2c1NC(=O)N3c1cc(-c2ccccc2)ncn1 [Example 723, (R)-4-Oxo-5-(6-phenylpyrimidin-4-yl)-N-(piperidin-3-yl)-4,5-dihydro-3H-1-thia-3,5,8-triazaacenaphthylene-2-carboxamide] |
| 6.1 | – | Cc1ccc(-c2ccccc2)cc1N1C(=O)Nc2c(C(=O)N[C@@H]3CCCNC3)sc3nccc1c23 [Example 725, (R)-5-(4-Methyl-[1,1′-biphenyl]-3-yl)-4-oxo-N-(piperidin-3-yl)-4,5-dihydro-3H-1-thia-3,5,8-triazaacenaphthylene-2-carboxamide] |
| <6 | – | CC(C)c1cc(N2C(=O)Nc3c(C(=O)N[C@@H]4CCCNC4)sc4nccc2c34)ccn1 [Example 727, (R)-5-(2-Isopropylpyridin-4-yl)-4-oxo-N-(piperidin-3-yl)-4,5-dihydro-3H-1-thia-3,5,8-triazaacenaphthylene-2-carboxamide] |
| <6 | – | Cc1cnc(-c2ccccc2)cc1N1C(=O)Nc2c(C(=O)N[C@@H]3CCCNC3)sc3nccc1c23 [Example 729, (R)-5-(5-Methyl-2-phenylpyridin-4-yl)-4-oxo-N-(piperidin-3-yl)-4,5-dihydro-3H-1-thia-3,5,8-triazaacenaphthylene-2-carboxamide] |
| – | > 1000 nM | Cc1cc(OCCOC(C)C)ccc1N1C(=O)Nc2c(C(=O)N[C@@H]3CCCNC3)sc3nccc1c23 [Example 730, (R)-5-(4-(2-Isopropoxyethoxy)-2-methylphenyl)-4-oxo-N-(piperidin-3-yl)-4,5-dihydro-3H-1-thia-3,5,8-triazaacenaphthylene-2-carboxamide] |
| <6 | – | O=C(N[C@@H]1CCCNC1)c1sc2nccc3c2c1NC(=O)N3c1ccnc(C2CCCCC2)c1 [Example 731, (R)-5-(2-Cyclohexylpyridin-4-yl)-4-oxo-N-(piperidin-3-yl)-4,5-dihydro-3H-1-thia-3,5,8-triazaacenaphthylene-2-carboxamide] |

Further lines, the molecule ahead of its results:

| SMILES | BTK_I_binding pIC50 | IC50 |
| --- | --- | --- |
| C=CC(=O)N1CCC[C@@H](NC(=O)c2sc3nccc4c3c2NC(=O)N4c2ccnc(C3CCCC3)c2)C1 [Example 692, (R)—N-(1-Acryloylpiperidin-3-yl)-5-(2-cyclopentylpyridin-4-yl)-4-oxo-4,5-dihydro-3H-1-thia-3,5,8-triazaacenaphthylene-2-carboxamide] | 8.0 | – |
| C=CC(=O)N1CCC[C@@H](NC(=O)c2sc3nccc4c3c2NC(=O)N4c2ccc(OC3CCCC3)cc2C)C1 [Example 693, (R)—N-(1-Acryloylpiperidin-3-yl)-5-(4-(cyclopentyloxy)-2-methylphenyl)-4-oxo-4,5-dihydro-3H-1-thia-3,5,8-triazaacenaphthylene-2-carboxamide] | 7.9 | – |
| C=CC(=O)N1CCC[C@@H](NC(=O)c2sc3nccc4c3c2NC(=O)N4c2ccc(OC)cc2C)C1 [Example 694, (R)—N-(1-Acryloylpiperidin-3-yl)-5-(4-methoxy-2-methylphenyl)-4-oxo-4,5-dihydro-3H-1-thia-3,5,8-triazaacenaphthylene-2-carboxamide] | 7.1 | – |
| C=CC(=O)N1CCC[C@@H](NC(=O)c2sc3nccc4c3c2NC(=O)N4c2cc(-c3ccccc3)ncc2C)C1 [Example 695, (R)—N-(1-Acryloylpiperidin-3-yl)-5-(5-methyl-2-phenylpyridin-4-yl)-4-oxo-4,5-dihydro-3H-1-thia-3,5,8-triazaacenaphthylene-2-carboxamide] | 7.3 | – |
| C=CC(=O)N1CCC[C@@H](NC(=O)c2sc3nccc4c3c2NC(=O)N4c2ccc(OCCOC(C)C)cc2C)C1 [Example 696, (R)—N-(1-Acryloylpiperidin-3-yl)-5-(4-(2-isopropoxyethoxy)-2-methylphenyl)-4-oxo-4,5-dihydro-3H-1-thia-3,5,8-triazaacenaphthylene-2-carboxamide] | 6.9 | – |
| C=CC(=O)N1CCC[C@@H](NC(=O)c2sc3nccc4c3c2NC(=O)N4c2ccnc(C(C)C)c2)C1 [Example 697, (R)—N-(1-Acryloylpiperidin-3-yl)-5-(2-isopropylpyridin-4-yl)-4-oxo-4,5-dihydro-3H-1-thia-3,5,8-triazaacenaphthylene-2-carboxamide] | 6.9 | – |
| C=CC(=O)N1CC[C@@H](NC(=O)c2sc3nccc4c3c2NC(=O)N4c2ccc(Oc3ccccc3)cn2)C1 [Example 698, (R)—N-(1-Acryloylpyrrolidin-3-yl)-4-oxo-5-(5-phenoxypyridin-2-yl)-4,5-dihydro-3H-1-thia-3,5,8-triazaacenaphthylene-2-carboxamide] | – | 31.6 nM |
| C=CC(=O)N1CC[C@@H](NC(=O)c2sc3nccc4c3c2NC(=O)N4c2cnc(Oc3ccccc3)cn2)C1 [Example 699, (R)—N-(1-Acryloylpyrrolidin-3-yl)-4-oxo-5-(5-phenoxypyrazin-2-yl)-4,5-dihydro-3H-1-thia-3,5,8-triazaacenaphthylene-2-carboxamide] | 7.2 | – |
| C=CC(=O)N1CCC[C@@H](NC(=O)c2sc3nccc4c3c2NC(=O)N4c2ccnc(-c3cccnc3)c2)C1 [Example 701, (R)-5-([2,3′-Bipyridin]-4-yl)-N-(1-acryloylpiperidin-3-yl)-4-oxo-4,5-dihydro-3H-1-thia-3,5,8-triazaacenaphthylene-2-carboxamide] | 7.2 | – |
| CN(C)C/C=C/C(=O)N1CC[C@@H](NC(=O)c2sc3nccc4c3c2NC(=O)N4c2ccc(Oc3ccccc3)c(Cl)c2)C1 [Example 703, (R,E)-5-(3-Chloro-4-phenoxyphenyl)-N-(1-(4-(dimethylamino)but-2-enoyl)pyrrolidin-3-yl)-4-oxo-4,5-dihydro-3H-1-thia-3,5,8-triazaacenaphthylene-2-carboxamide] | 7.8 | – |
| C=CC(=O)N1CCC[C@@H](NC(=O)c2sc3nccc4c3c2NC(=O)N4c2ccc(OC3CCC3)nc2C)C1 [Example 704, (R)—N-(1-Acryloylpiperidin-3-yl)-5-(6-cyclobutoxy-2-methylpyridin-3-yl)-4-oxo-4,5-dihydro-3H-1-thia-3,5,8-triazaacenaphthylene-2-carboxamide] | 6.6 | – |
| C=CC(=O)N1CC[C@@H](NC(=O)c2sc3nccc4c3c2NC(=O)N4c2cccc(C(C)C)c2)C1 [Example 705, (R)—N-(1-Acryloylpyrrolidin-3-yl)-5-(3-isopropylphenyl)-4-oxo-4,5-dihydro-3H-1-thia-3,5,8-triazaacenaphthylene-2-carboxamide] | 6.7 | – |
| O=C(N[C@@H]1CCCNC1)c1sc2nccc3c2c1NC(=O)N3c1cccc(-c2cccc(F)c2F)c1 [Example 706, (R)-5-(2′,3′-Difluoro-[1,1′-biphenyl]-3-yl)-4-oxo-N-(piperidin-3-yl)-4,5-dihydro-3H-1-thia-3,5,8-triazaacenaphthylene-2-carboxamide] | 7.7 | – |
| C=CC(=O)N1CCC[C@@H](NC(=O)c2sc3nccc4c3c2NC(=O)N4c2cccc(C3CCOCC3)c2)C1 [Example 708, (R)—N-(1-Acryloylpiperidin-3-yl)-4-oxo-5-(3-(tetrahydro-2H-pyran-4-yl)phenyl)-4,5-dihydro-3H-1-thia-3,5,8-triazaacenaphthylene-2-carboxamide] | 6.5 | – |
| C=CC(=O)N1CCC[C@@H](NC(=O)c2sc3nccc4c3c2NC(=O)N4c2ccnc(-c3ccccn3)c2)C1 [Example 709, (R)-5-([2,2′-Bipyridin]-4-yl)-N-(1-acryloylpiperidin-3-yl)-4-oxo-4,5-dihydro-3H-1-thia-3,5,8-triazaacenaphthylene-2-carboxamide] | 6.7 | – |
